What was measured:
[1] = system: Bax promoter; assay: Stimulation of the Bax promoter by p53 after incubation with peptides (FIG. 4); format: cell-based; details: after incubation with peptide
Description: FIG. 4 illustrates the stimulation of the Bax promoter by p53 after incubation with various peptides, in particular DGPEETD (SEQ ID NO: 2);
For transcriptional assay, 5×10^5 Saos-2 cells were plated 24 hr prior to transfection in 6 cm dishes. Various combinations of plasmid DNA were transfected using the following amounts. All transfection assays contain 1 μg of reporter plasmid. 50 ng of wild type human p53, 100 ng of plasmid expressing C. elegans p53, 4 μg of ASPP2, or 8 μg of ASPP1, 5 μg of human iASPP or 7.5 μg of Ce-iASPP were used as indicated. After transfection, the cells were lysed in Reporter Lysis Buffer (Promega, Wis., USA) 16-24 hr post-wash and assayed using the Luciferase Assay kit (Promega, Wis., USA). The fold activation of a particular reporter was determined by the activity of the transfected plasmid above the activity of vector alone. The fold increase of p53 transactivation activity by ASPP was obtained by the activity p53 in combination with ASPP divided by the activity of p53 alone on the promoters used in each assay.

[2] = system: p53 transactivation in U2SO; assay: p53 transactivation in tumour cell line after UV damage of DNA in presence of peptide (FIG. 5); format: cell-based, human; details: U2SO cells after UV damage of DNA
Description: FIG. 5 illustrates the stimulation of p53 transactivation in a human tumour cell line U2SO after UV damage of DNA in the presence of peptide DGPEETD (SEQ ID NO: 2);

Substance: DGPEETD (p53 inhibitor peptide)
- stimulation of the Bax promoter by p53 [1]: stimulation
- stimulation of p53 transactivation [2]: stimulation
